From PMC11784839, “Monoaminergic neurotransmitters are bimodal effectors of tau aggregation” (Science Advances, 2025)

Target: tau (Homo sapiens, UniProt P10636)
Experiment: MCE Phenols Library screening, tau biosensor cell seeding assay (AvZ)
Assay type: cell-based
Conditions: for AvZ (average z score of seeding, SDs from the mean level of seeding): 10 μM phenol in cell cultures, AD brain homogenate preincubated 16 hours, two biological replicates, positive = catalyzes seeding, negative = inhibits; for Z repl 1 / Z Repl 2: Z score; for Z repl 1 / raw data 1: replicate 1; for Z Repl 2 / raw data 2: replicate 2
[1] = average Z score of the two replicates, MCE Phenols Library screen
[2] = average puncta of the two replicates
[3] = average Z score of the two replicates, tau seeding
[4] = average Z score of two replicates, Phenols Library screen

Sequence of tau (P10636 623-695 limits assumed): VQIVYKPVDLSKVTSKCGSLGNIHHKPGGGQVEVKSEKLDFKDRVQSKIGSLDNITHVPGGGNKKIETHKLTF

| SMILES | AvZ (average z score of seeding, SDs from the mean level of seeding) | Z repl 1 | Z Repl 2 | av puncta (average of raw data 1 and 2) | raw data 1 (puncta) | raw data 2 (puncta) | av Z [1] | av puncta [2] | av Z [3] | raw data 1 (raw puncta) | raw data 2 (raw puncta) | av Z [4] |
| --- | --- | --- | --- | --- | --- | --- | --- | --- | --- | --- | --- | --- |
| CCCOC(=O)c1ccc(O)cc1 [Propylparaben] | 0.488 | 0.084 | 0.893 | 24829.8 | 27354.6 | 22304.9 |  |  |  |  |  |  |
| O=C(O)c1cccc(O)c1 [3-Hydroxybenzoic acid] | -0.814 | -0.749 | -0.88 | 10365.4 | 17360.5 | 3370.33 |  |  |  |  |  |  |
| O=C(O)C[C@@H]1C(=O)O[C@H]2[C@@H]3OC(=O)c4cc(O)c(O)c(O)c4-c4c(cc(O)c(O)c4O)C(=O)OC[C@H]2O[C@@H](OC(=O)c2cc(O)c(O)c(O)c2)[C@@H]3OC(=O)c2cc(O)c(O)c3c2[C@H]1[C@H](O)C(=O)O3 [Chebulagic acid] |  | -2.151 |  | 382.845 | 523.863 | 241.827 | -1.662 |  |  |  |  |  |
| COc1c(O[C@@H]2O[C@H](CO)[C@@H](O)[C@H](O)[C@H]2O)cc2c(c1O)C(=O)c1c(cc(C)c(O)c1OC)C2=O [Aurantio-obtusin ?-D-glucoside] |  | -0.961 | -0.271 |  | 14810.1 | 9875.55 | -0.616 | 12342.8 |  |  |  |  |
| CC(C)=CCc1c2c(c(O)c3c1O[C@]14C(=C[C@@H]5C[C@H]1C(C)(C)O[C@@]4(C/C=C(/C)C(=O)O)C5=O)C3=O)C=CC(C)(C)O2 [Morellic acid] |  | -0.656 | -0.586 |  | 18474.5 | 6511.03 | -0.621 | 12492.8 |  |  |  |  |
| Cc1cc(O)cc(C)c1O [2,6-Dimethylhydroquinone] | 0.003 | 0.44 | -0.434 | 19881.8 | 31637.3 | 8126.32 |  |  |  |  |  |  |
| C#C[C@]1(O)CC[C@H]2[C@@H]3CCc4cc(O)ccc4[C@H]3CC[C@@]21C [Ethynyl Estradiol] |  | 0.578 | 0.204 | 24116.9 | 33285.2 | 14948.5 |  |  | 0.391 |  |  |  |
| O=C(/C=C/c1ccc(O)cc1)c1ccc(O)cc1O [Isoliquiritigenin] |  | 0.483 | 0.177 | 23402.5 | 32143.5 | 14661.5 |  |  | 0.33 |  |  |  |
| O=c1cc(-c2ccc(O)c(O)c2)oc2cc(O[C@@H]3O[C@H](CO)[C@@H](O)[C@H](O)[C@H]3O)c(O)c(O)c12 [6-Hydroxyluteolin 7-glucoside] |  | -0.171 | -0.979 |  | 24297.8 | 2305.25 | -0.575 | 13301.5 |  |  |  |  |
| Oc1cc(O)c2c(c1)O[C@H](c1ccc(O)c(O)c1)[C@@H](O)[C@H]2O [Leucocyanidin] |  | -0.147 | -0.356 |  |  |  | -0.251 | 16774.6 |  | 24584.1 | 8965.07 |  |
| C[C@@H]1O[C@@H](Oc2cc(O)c3c(=O)c(O)c(-c4ccc(O)cc4)oc3c2O)[C@H](O)[C@H](O)[C@H]1O [Rhodionin] |  |  | -1.086 | 6714.99 | 12258.1 | 1171.9 | -1.13 |  |  |  |  |  |
| C[C@@H]1O[C@@H](OC[C@H]2O[C@@H](OCCc3ccc(O)c(O)c3)[C@H](O)[C@@H](OC(=O)/C=C/c3ccc(O)c(O)c3)[C@@H]2O)[C@H](O)[C@H](O)[C@H]1O [Forsythoside I] |  | -1.102 | -0.666 | 9388.55 | 13120.4 | 5656.67 | -0.884 |  |  |  |  |  |
| C[C@@H]1O[C@@H](Oc2cc(O)c3c(=O)c(O[C@@H]4O[C@@H](C)[C@H](O)[C@@H](O)[C@H]4O)c(-c4ccc(O)cc4)oc3c2)[C@H](O)[C@H](O)[C@H]1O [Kaempferitrin] |  | -1.403 | -0.446 | 8757.09 | 9507.36 | 8006.82 | -0.924 |  |  |  |  |  |
| COc1ccc(C(=O)O)cc1O [Isovanillic acid] | -0.151 | 0.248 | -0.549 | 18113.3 | 29328.9 | 6897.73 |  |  |  |  |  |  |
| CC(C)c1cc2c(c(O)c1O)[C@@]13CCCC(C)(C)[C@@H]1C[C@@H]2OC3=O [Carnosol] |  | 0.436 | -0.449 | 19780.5 | 31586 | 7974.93 |  |  |  |  |  | -0.006 |
| O=C(CCc1ccc(O)cc1)c1c(O)cc(O[C@@H]2O[C@H](CO)[C@@H](O)[C@H](O)[C@H]2O)cc1O [Trilobatin] |  | 0.764 | -0.24 | 22862 | 35522.1 | 10201.8 |  |  | 0.262 |  |  |  |

| SMILES | AvZ (average z score of seeding, SDs from the mean level of seeding) | Z repl 1 | Z Repl 2 | av puncta (average of raw data 1 and 2) | raw data 1 (puncta) | raw data 2 (puncta) | av Z [1] | av puncta [2] | av Z [3] | raw data 1 (raw puncta) | raw data 2 (raw puncta) | av Z [4] |
| --- | --- | --- | --- | --- | --- | --- | --- | --- | --- | --- | --- | --- |
| C[C@@H]1O[C@@H](O[C@H]2C(=O)c3c(O)cc(O)cc3O[C@H]2c2ccc(O)c(O)c2)[C@H](O)[C@H](O)[C@H]1O [Neoisoastilbin] |  | 0.661 | 0.303 | 25148.1 | 34290.2 | 16006 |  |  | 0.482 |  |  |  |
| CCCCCCC[C@H](O)CC(=O)CCc1ccc(O)c(OC)c1 [8-Gingerol] | -0.236 | 0.065 | -0.537 |  |  |  |  | 17076 |  | 27124.2 | 7027.77 |  |
| O=Cc1c[nH]c2cccc(O)c12 [4-Hydroxy-1H-indole-3-carbaldehyde] | 0.212 | 0.51 | -0.086 | 22163.8 | 32475.1 | 11852.6 |  |  |  |  |  |  |
| Cl.Oc1ccc(CC2NCCc3cc(O)c(O)cc32)cc1 (stereo not shown) [Higenamine (hydrochloride)] |  | -0.238 | -1.059 |  | 23487.2 | 1451.73 | -0.649 | 12469.5 |  |  |  |  |
| O=C(/C=C/c1ccc(O)c(O)c1)O[C@@H]1C[C@](O)(C(=O)O)C[C@@H](O)[C@H]1O [Chlorogenic acid] |  | 0.232 | -0.247 | 19631.7 | 29136 | 10127.4 |  |  |  |  |  | -0.007 |
| Cc1cc(O)c2c(=O)c3c(O)cc(O)c4c5c(O)cc(O)c6c(=O)c7c(O)cc(C)c8c1c2c(c34)c(c78)c65 [Hypericin] |  | -1.344 | -0.424 | 9227.43 | 10216.3 | 8238.56 | -0.884 |  |  |  |  |  |
| C[C@@H]1CC(=O)c2c(ccc3c2C(=O)c2cccc(O)c2C3=O)C1 [Ochromycinone] |  | -0.991 | -0.213 |  | 14447.4 | 10495.4 | -0.602 | 12471.4 |  |  |  |  |
| COc1ccc(C=O)cc1O [Isovanillin] | -0.519 | -0.326 | -0.711 |  | 22438.6 | 5167.88 |  | 13803.3 |  |  |  |  |
| O=c1ccc2cc(O)ccc2o1 [6-Hydroxycoumarin] |  | -0.422 | 0.434 | 19344 | 21288.5 | 17399.5 |  |  |  |  |  | 0.006 |
| O=c1c2c(O)cc(O)cc2oc2c(O)ccc(O[C@@H]3O[C@H](CO)[C@@H](O)[C@H](O)[C@H]3O)c12 [Norswertianolin] |  | -0.236 | -0.647 |  |  |  | -0.441 | 14688.3 |  | 23518.4 | 5858.11 |  |
| COc1cc([C@@H]2Oc3c(O)cc([C@H]4Oc5cc(O)cc(O)c5C(=O)[C@@H]4O)cc3[C@H]2CO)ccc1O [Silychristin] |  | 0.429 | -0.406 | 19966.5 | 31503 | 8429.95 |  |  |  |  |  | 0.012 |
| C[C@]12CC[C@@H]3c4ccc(O)cc4CC[C@H]3[C@@H]1C[C@@H](O)[C@@H]2O [Estriol] |  | 0.006 | 0.639 | 23004.4 | 26418.8 | 19589.9 |  |  | 0.322 |  |  |  |
| O=C(C=Cc1ccc(O)c(O)c1)OC1CC(O)(C(=O)O)CC(O)C1OC(=O)C=Cc1ccc(O)c(O)c1 (stereo not shown) [4,5-Dicaffeoylquinic acid] |  | -1.017 | -0.252 |  | 14137.8 | 10071.7 | -0.635 | 12104.8 |  |  |  |  |
| Cc1cc2c(C(C)C)c(O)c(O)c(C=O)c2c(O)c1-c1c(C)cc2c(C(C)C)c(O)c(O)c(C=O)c2c1O [Gossypol] |  | -2.171 | -0.607 | 3285.13 | 287.373 | 6282.89 | -1.389 |  |  |  |  |  |
| COc1cc(CO)ccc1O [Vanillyl alcohol] | -0.269 | 0.198 | -0.736 |  |  |  |  | 16813.8 |  | 28727.3 | 4900.36 |  |
